Assay results as given in article PMC8152814, “The modulatory role of sulfated and non-sulfated small molecule heparan sulfate-glycomimetics in endothelial dysfunction: absolute structural clarification, molecular docking and simulated dynamics, SAR analyses and ADMET studies” (RSC Medicinal Chemistry, 2021).

Key:
[1] = system: nitric oxide (NO); experiment: NO release assay (DAF-2) in FFA-stressed cells; assay type: cell-based, human; conditions: averaged % of increase (+) or decrease (−) compared to control (FFA induced oxidatively stressed endothelial cells), n = 3
Description: (§1) The assays focused on the production of nitric oxide (NO) and the upregulation of nitric oxide synthase (eNOS), the production of reactive oxygen species (ROS) and the activity of nicotinamide adenine dinucleotide phosphate (NADPH) oxidase (Table 2). From the hypothesised model of heparan sulfate-glycomimetic activity,[17] the glycomimetics are proposed to attenuate the binding of HGF to the cMET receptor. This disruption to MET-receptor activation is proposed to modulate intracellular phosphorylation leading to an upregulation of eNOS and increased output of extracellular NO. […] Overall, the cross examination of NO output and reduction of ROS was used to determine the therapeutic action of the triaged glycomimetics α-4, R-10, S-10 and β-5, as well as 3 non-sulfated intermediates α-2, α-3 and β-3, on free fatty acid (FFA) induced, oxidatively stressed endothelial cell cultures (Table 2).
(§2) Biological assay and AMDET experimental details […]
(§3) Preparation of FFA-albumin complexes and cell treatments
(§4) To generate the in vitro model of oxidative stress, sodium palmitate was bound to bovine serum albumin (BSA) as outlined by Chavez and Summers,S2 with modifications. Sodium palmitate (FFA) was dissolved in EtOH at 60 °C and diluted 1:100 in M199 media supplemented with 2% fatty acid-free bovine serum albumin (BSA) and incubated for 1 h at 37 °C. HepG2 cells were treated with 1 μmol/L of the synthesized HS-glycomimetics in the presence of palmitate (100 μmol/L) for 3 h or pre-treated with glycomimetics for 12 h followed by 3 h palmitate (100 μmol/L). Control cells were incubated in serum free M199 containing 2% (wt/vol) fatty acid-free BSA.
NO release assay and Quantification of ROS production
NO release was determined using diaminofluorescein-2 (DAF-2).S3 The cells were washed with PBS and incubated with L-arginine (100 μmol/L in PBS) for 5 min at 37 °C before incubation with DAF-2 (0.1 μmol/L) for 2 min, followed by the calcium ionophore calimycin (A23187, 1 μmol L) for 30 min. L-NAME (100 μmol/L), a nitric oxide inhibitor (NOS), was also added 20 min before the addition of L-arginine in some experiments to determine the involvement of NOS. DAF-2 fluorescence (arbitrary units, AU) was quantified using a microplate reader (BioTek) with excitation and emission wavelengths of 485 nm and 540 nm, respectively. The auto-fluorescence was subtracted from each value. […]
(§5) H2DCFDA, Sigma) for 30 min at 37 °C, and the level of fluorescence was determined (excitation 490 nm; emission 540 nm) using a microplate reader (BioTek).
(§6) The level of NADPH-enhanced superoxide anions (O2•−) in HepG2 homogenates was determined by lucigenin-enhanced chemiluminescence.S4 Following the various treatment conditions, cells were homogenized in a buffer (20 mmol/L H2KPO4 and 1 mmol/L EDTA supplemented with aprotinin, leuprotinin, pepstatin and PMSF). The total protein quantified using the Bicinchoninic acid (BCA) assay (Pierce Biotechnology). To 50 μg of total protein, NADPH (100 μmol/L) was added in a total volume of 500 μL, with lucigenin (5 μmol/L) and was injected automatically. Activity was determined by measuring luminescence over 200 s in a scintillation counter (Lumat LB 9507, Berthold, Germany). Basal values of NADPH oxidase activity were subtracted from the experimental values and expressed as RLU/min/μg protein […]
(§7) In situ quantification of ROS species
(§8) Superoxide dismutase (SOD) and catalase (CAT) activity assays, and in situ detection of vascular ROS content. The activity of the enzymes, SOD and CAT, was determined in cell homogenates using assay kits according to the manufacturer's instructions (Cayman; Cat No 706002 and 707002 respectively). A unit of SOD was defined as the amount of enzyme […]
(§9) Similarly, a unit of CAT was […]
(§10) defined as the amount required to form 1.0 nmol of formaldehyde per min at 25 °C.S5

[2] = Microsomal metabolic stability, mouse liver microsomes; conditions: liver microsomes (pooled), pH 7.4
[3] = system: eNOS; experiment: eNOS phosphorylation (Western blot) in FFA-stressed cells; assay type: cell-based, human; conditions: averaged % of increase (+) or decrease (−) compared to control (FFA induced oxidatively stressed endothelial cells), n = 3
Description: as §1, §2, §3
as §4, with “BSA. […]” for “BSA.”
HepG2 wells were lysed in RIPA buffer containing proteinase inhibitors and the total protein was quantified using BCA protein assay kit (Pierce Biotechnology). Proteins (30 μg/well) were denatured and separated by sodium dodecyl sulfate (SDS)-polyacrylamide gel electrophoresis and transferred to polyvinylidene difluoride (PVDF) membranes. Blots were blocked for 1 h in 5% semi-skimmed milk/Tris-Buffered Saline Tween-20 (TBS-T), probed with primary rabbit anti-phospho-protein kinase B (Akt), rabbit anti-Akt (Santa Cruz Biotechnology), rabbit polyclonal anti-phospho-eNOS (Cell Signaling) overnight at 4 °C followed by washing and incubation with the corresponding horse radish peroxidase-labelled secondary antibody for 1 h at room temperature. After washing with TBS-T, membranes were incubated with ECL reagent and visualized (Amersham Pharmacia Biotech). Densitometry analysis using ImageJ© (version 1.32j, NIH) was used to quantify the protein signal.S7 […]
(typically 0.01 M phosphate buffered saline pH 7.4) so that the final DMSO concentration is 1 % and the final test compound concentrations are 1, 3, 10, 30 and 100 µM. The experiment is performed at 37 °C and each concentration is incubated in 7 replicate wells. The plates are incubated for 2 h at 37 °C before the absorbance is measured at 620nm. Nicardipine (pH dependent) and pyrene (pH independent) are included as control compounds. The solubility is estimated from the concentration of test compound that produces an increase in absorbance above vehicle control (1% DMSO in buffer).

[4] = system: NADPH oxidase; experiment: NADPH oxidase activity (lucigenin chemiluminescence) in cell homogenates; assay type: cell-based, human; parameters: concentration or dose not given beside the values; conditions: averaged % of increase (+) or decrease (−) compared to control (FFA induced oxidatively stressed endothelial cells), n = 3
Description: as §1, §2, §3
as §4, with “BSA. […]” for “BSA.”
as §5, §6, §7, §8, §9, §10

[5] = Chemical stability; assay type: physicochemical
Description: | column: α-4; β-5; R-10; S-10

half-life at 3 µM [2]	microsomal CLint at 3 µM [2]	SMILES	NO production [1]	eNOS phosphorylation [3]	NADPH oxidase activity [4]	Chemical stability [5]	half-life at 0.75 h, 3 µM [2]	microsomal CLint at 0.75 h, 3 µM [2]
30.7 h	0.755 µL/min/mg	COC(=O)c1cc(OC[C@@H](COS(=O)(=O)[O-])OS(=O)(=O)[O-])ccc1OCC(COS(=O)(=O)[O-])OS(=O)(=O)[O-].[Na+].[Na+].[Na+].[Na+] (mixture of isomers) [α-4, sodium 3-(4-((S)-2,3-bis(sulfonatooxy)propoxy)-2-(methoxycarbonyl)phenoxy)propane-1,2-diyl bis(sulfate)]	+110%	+342%	−29%	Yes	–	–
8.03 h	2.88 µL/min/mg	O=C([O-])c1cc(OC[C@H](COS(=O)(=O)[O-])OS(=O)(=O)[O-])ccc1OCC(COS(=O)(=O)[O-])OS(=O)(=O)[O-].[Na+].[Na+].[Na+].[Na+].[Na+] (mixture of isomers) [β-5, sodium 5-((R)-2,3-bis(sulfonatooxy)propoxy)-2-(2,3-bis(sulfonatooxy)propoxy)benzoate]	+62%	+318%	−31%	Yes	–	–
–	–	COC(=O)c1cc(OC[C@H](COS(=O)(=O)[O-])OS(=O)(=O)[O-])ccc1OCCCCOS(=O)(=O)[O-].[Na+].[Na+].[Na+] [Compound R-10, sodium (R)-3-(3-(methoxycarbonyl)-4-(4-(sulfonatooxy)butoxy)phenoxy)propane-1,2-diyl bis(sulfate)]	+52%	+613%	−31%	Yes	57.5 h	0.402 µL/min/mg
–	–	COC(=O)c1cc(OC[C@@H](COS(=O)(=O)[O-])OS(=O)(=O)[O-])ccc1OCCCCOS(=O)(=O)[O-].[Na+].[Na+].[Na+] [Compound S-10, sodium (S)-3-(3-(methoxycarbonyl)-4-(4-(sulfonatooxy)butoxy)phenoxy)propane-1,2-diyl bis(sulfate)]	+63%	+397%	−27%	Yes	–	0.333 µL/min/mg
